Data on 14 molecules can be found in patent US20240051946A1, “TARGETED PROTEIN DEGRADATION OF PARP14 FOR USE IN THERAPY” (Ribon Therapeutics, Inc., priority 2022, published 2024).

Where two headings read alike, the source gives them in different places. Where only a bound is given, the exact number is not on record here.

The target of test [1] is T1, catalytic domain of human PARP14 (residues 1611 to 1801) with NanoLuc tag (Homo sapiens, UniProt Q460N5).
T1 construct: expressed in transfected cells; host or cells: HEK-293T cells (ATCC), plasmid pRTX240 in pcDNA3.1(-)
T1 sequence (Q460N5 1611-1801): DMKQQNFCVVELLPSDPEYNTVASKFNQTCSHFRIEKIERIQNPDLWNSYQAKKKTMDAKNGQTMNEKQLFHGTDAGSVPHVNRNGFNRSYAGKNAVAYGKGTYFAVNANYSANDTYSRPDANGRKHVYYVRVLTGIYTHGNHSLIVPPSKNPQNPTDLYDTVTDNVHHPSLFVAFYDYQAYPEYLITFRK
Nature of the test: NanoLuc assay for the degradation of PARP14. The conditions noted are these: Assay A; NanoLuc-PARP14 overexpressed in HEK-293T cells; 2 hours at 37 degrees; luminescence. The test is classed as cell-based. The procedure: The catalytic domain of human PARP14 (residues 1611 to 1801, GenBank Accession No. NM_017554) was inserted into the pcDNA3.1(−) vector. The insert also contained a NanoLuc tag on the N terminus of the PARP14 protein.
Degradation of PARP14 protein was assessed using measurement of the NanoLuc tag as proxy for the PARP14 protein. PARP14 with NanoLuc tag was overexpressed in […] cells (ATCC) using the plasmid described in Table 1. Plasmid DNA was diluted in empty vector DNA then added to 1.163 mL of phenol red free OptiMEM (Thermo Fisher). Plasmid DNA concentrations used in each assay described in Table 1. The plasmid DNA was mixed with 78.5 μL of Fugene HD (Promega) and allowed to incubate 5 minutes.
Next, 1.125 mL were added to 10 million 293T cells in DMEM (Thermo Fisher) supplemented with 10% FBS (VWR) and 1× Glutamax (Gibco). The transfection was incubated for 24 hrs at 37 degrees in an incubator supplemented with 5% CO2. The cells were then trypsinized and brought up in phenol red free OptiMEM media. Transfected HEK-293T cells were diluted to […] and then added to assay plate (Corning 3574) using a Multidrop (Thermo Fisher) to add 40 μL per well of the 384 well plate, resulting in 5,000 cells per well. 40 nL of a dose response curve diluted in DMSO of each test compound was added to the cell plate using a Mosquito (TTP Labtech) and the plate was incubated at 37 degrees for 2 hours. Assay plate was brought to room temperature then 20 μL per well of NanoGlo (Promega) was added to the plate. Luminescence was measured on an Envision (Perkin Elmer).
(§1) The average DMSO was calculated from 32 wells containing 0.1% DMSO only in columns 12 and 24 of the assay plate. The % of DMSO values were calculated as described below: […]
(§2) The % of DMSO values were plotted as a function of compound concentration and the following 4-parameter fit was applied to derive the DC50 values:
(§3) where top, bottom, and Hill Coefficient are allowed to float. Y is the % of DMSO and X is the compound concentration.
DC50 data for the Example compounds is provided below in Table 2 (“+” is <0.1 μM; “++” is ≥0.1 μM and <1 μM; and “+++” is ≥1 μM).

The target of a further test is T2, PARP14 (Homo sapiens, UniProt Q460N5).
T2 construct: engineered to contain a HiBiT tag on both alleles of the PARP14 gene; endogenous in cells; host or cells: Jurkat cells stably expressing LgBiT (Promega), with CRISPR/Cas9 knock-in of HiBiT at the PARP14 locus
Kind of test: HiBiT assay for the degradation of PARP14 (HiBiT tagged PARP14 in LgBiT expressing Jurkat cells). The class given is cell-based. The note with it: Assay B, 37° C. for 2 or 24 hours, luminescence. The procedure:
Jurkat cells stably transfected with LgBiT (Promega) were engineered to contain a HiBiT tag on both alleles of the PARP14 gene (Genbank Accession Number: NM_017554) via CRISPR/Cas9 editing. The HiBiT tag is an 11 amino acid tag created by Promega that associates with LgBiT protein to form the NanoLuc® tag on the C-terminus of PARP14. Clones were isolated and confirmed for the HiBiT tag via Sanger sequencing.
Degradation of PARP14 protein was assessed by measuring the luminescence of the HiBiT tag associating with the LgBiT protein as a proxy for the PARP14 protein. Jurkat cells were diluted to 250,000 cells per mL and then added to assay plate (Corning 3574) using a Multidrop (Thermo Fisher) to add 20 μL per well of the 384 well plate, resulting in 5,000 cells per well. 20 nL of a dose response curve diluted in DMSO of each test compound was added to the cell plate using a Mosquito (TTP Labtech) and the plate was incubated at 37° C. for 2 or 24 hours. Assay plate was brought to room temperature then 5 μL per well of Live Cell Substrate (Promega) was added to the plate. Luminescence was measured on an Envision (Perkin Elmer).
as §1, §2, §3
DC50 data for the Example compounds is provided below in Table 2 (“+” is <0.03 μM; “++” is ≥0.03 μM).
A general note: The HiBiT peptide binds its large partner to form an active luciferase.

T2 sequence (Q460N5 whole entry): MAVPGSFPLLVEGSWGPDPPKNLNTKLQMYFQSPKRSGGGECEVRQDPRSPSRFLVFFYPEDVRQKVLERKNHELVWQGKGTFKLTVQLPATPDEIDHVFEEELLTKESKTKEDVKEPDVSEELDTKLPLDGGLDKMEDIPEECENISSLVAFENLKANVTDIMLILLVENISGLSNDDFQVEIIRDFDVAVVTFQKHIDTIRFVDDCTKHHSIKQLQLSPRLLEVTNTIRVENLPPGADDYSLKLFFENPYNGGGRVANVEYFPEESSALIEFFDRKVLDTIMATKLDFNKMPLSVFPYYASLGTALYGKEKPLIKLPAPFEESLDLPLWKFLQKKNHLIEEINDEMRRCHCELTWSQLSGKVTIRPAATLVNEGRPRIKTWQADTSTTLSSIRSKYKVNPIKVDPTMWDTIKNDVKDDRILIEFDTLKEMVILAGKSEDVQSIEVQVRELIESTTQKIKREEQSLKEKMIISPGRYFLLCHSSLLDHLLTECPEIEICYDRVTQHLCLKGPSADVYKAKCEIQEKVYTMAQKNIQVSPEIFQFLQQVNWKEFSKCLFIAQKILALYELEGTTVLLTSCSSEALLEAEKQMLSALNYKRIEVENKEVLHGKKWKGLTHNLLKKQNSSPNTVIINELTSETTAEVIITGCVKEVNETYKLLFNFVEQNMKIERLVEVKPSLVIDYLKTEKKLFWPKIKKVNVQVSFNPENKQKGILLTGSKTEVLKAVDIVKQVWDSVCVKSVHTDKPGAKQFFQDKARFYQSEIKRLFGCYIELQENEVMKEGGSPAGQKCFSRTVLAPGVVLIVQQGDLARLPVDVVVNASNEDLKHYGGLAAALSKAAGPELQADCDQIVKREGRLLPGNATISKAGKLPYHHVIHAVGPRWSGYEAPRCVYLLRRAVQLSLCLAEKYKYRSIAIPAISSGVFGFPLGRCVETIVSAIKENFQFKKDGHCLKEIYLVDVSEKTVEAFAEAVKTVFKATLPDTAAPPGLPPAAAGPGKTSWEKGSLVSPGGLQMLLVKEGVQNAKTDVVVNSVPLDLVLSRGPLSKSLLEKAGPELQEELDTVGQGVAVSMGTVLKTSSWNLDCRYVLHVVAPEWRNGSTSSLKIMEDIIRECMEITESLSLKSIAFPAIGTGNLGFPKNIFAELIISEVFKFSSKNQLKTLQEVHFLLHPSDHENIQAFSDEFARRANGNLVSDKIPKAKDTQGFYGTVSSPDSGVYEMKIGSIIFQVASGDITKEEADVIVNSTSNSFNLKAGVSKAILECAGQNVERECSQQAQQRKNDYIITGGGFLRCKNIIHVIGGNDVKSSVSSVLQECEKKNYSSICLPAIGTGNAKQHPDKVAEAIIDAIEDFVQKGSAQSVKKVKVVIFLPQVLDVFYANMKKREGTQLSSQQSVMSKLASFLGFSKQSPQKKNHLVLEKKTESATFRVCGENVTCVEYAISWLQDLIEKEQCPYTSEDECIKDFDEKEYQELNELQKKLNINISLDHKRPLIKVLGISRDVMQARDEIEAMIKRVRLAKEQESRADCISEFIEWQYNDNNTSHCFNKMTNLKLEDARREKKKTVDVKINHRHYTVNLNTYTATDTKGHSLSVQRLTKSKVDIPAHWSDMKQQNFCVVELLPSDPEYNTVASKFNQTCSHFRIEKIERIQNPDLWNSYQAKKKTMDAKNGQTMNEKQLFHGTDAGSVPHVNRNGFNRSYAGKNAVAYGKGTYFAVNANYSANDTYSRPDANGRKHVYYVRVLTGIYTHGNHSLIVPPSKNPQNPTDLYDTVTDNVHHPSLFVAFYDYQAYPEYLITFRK

Consider `CC(=O)N1CCC(COc2cc(F)c3c(=O)[nH]c(CSC4CCN(CC#Cc5ccc6c(c5)C(=O)N(C5CCC(=O)NC5=O)C6=O)CC4)nc3c2)CC1` (centres unmarked) [Example 34, 5-(3-(4-(((7-((1-acetylpiperidin-4-yl)methoxy)-5-fluoro-4-oxo-3,4-dihydroquinazolin-2-yl)methyl)thio)piperidin-1-yl)prop-1-yn-1-yl)-2-(2,6-dioxopiperidin-3-yl)isoindoline-1,3-dione], for which, in test [1], the DC50 is less than 100 nM.

`CC(=O)N1CCC(COc2cc(F)c3c(=O)[nH]c(CSC4CCN(CC#Cc5cccc6c5n(C)c(=O)n6C5CCC(=O)NC5=O)CC4)nc3c2)CC1` (centres unmarked) [Example 35, 3-(4-(3-(4-(((7-((1-acetylpiperidin-4-yl)methoxy)-5-fluoro-4-oxo-3,4-dihydroquinazolin-2-yl)methyl)thio)piperidin-1-yl)prop-1-yn-1-yl)-3-methyl-2-oxo-2,3-dihydro-1H-benzo[d]imidazol-1-yl)piperidine-2,6-dione] returned a DC50 in test [1] of less than 100 nM. The same measure, in the same setting: with `CC(=O)N1CCC(COc2cc(F)c3c(=O)[nH]c(CSC4CCN(CC#Cc5ccc6c(c5)n(C)c(=O)n6C5CCC(=O)NC5=O)CC4)nc3c2)CC1` (centres unmarked) [Example 36, 3-(5-(3-(4-(((7-((1-acetylpiperidin-4-yl)methoxy)-5-fluoro-4-oxo-3,4-dihydroquinazolin-2-yl)methyl)thio)piperidin-1-yl)prop-1-yn-1-yl)-3-methyl-2-oxo-2,3-dihydro-1H-benzo[d]imidazol-1-yl)piperidine-2,6-dione] the figure was less than 100 nM; with `CC(=O)N1CCC(COc2cc(F)c3c(=O)[nH]c(CSC4CCN(CC#Cc5ccc(N6CCC(=O)NC6=O)cc5)CC4)nc3c2)CC1` [Example 37, 1-(4-(3-(4-(((7-((1-acetylpiperidin-4-yl)methoxy)-5-fluoro-4-oxo-3,4-dihydroquinazolin-2-yl)methyl)thio)piperidin-1-yl)prop-1-yn-1-yl)phenyl)dihydropyrimidine-2,4(1H,3H)-dione], less than 100 nM. Still for that read-out and setting: in the case of `CC(=O)N1CCC(COc2cc(F)c3c(=O)[nH]c(CSC4CCN(CC#Cc5cccc(N6CCC(=O)NC6=O)c5)CC4)nc3c2)CC1` [Example 38, 1-(3-(3-(4-(((7-((1-acetylpiperidin-4-yl)methoxy)-5-fluoro-4-oxo-3,4-dihydroquinazolin-2-yl)methyl)thio)piperidin-1-yl)prop-1-yn-1-yl)phenyl)dihydropyrimidine-2,4(1H,3H)-dione] it was less than 100 nM. As to `CC(=O)N1CCC(COc2cc(F)c3c(=O)[nH]c(CSC4CCN(CC5CCN(c6cccc7c6C(=O)N(C6CCC(=O)NC6=O)C7=O)CC5)CC4)nc3c2)CC1` (centres unmarked) [Example 39, 4-(4-((4-(((7-((1-acetylpiperidin-4-yl)methoxy)-5-fluoro-4-oxo-3,4-dihydroquinazolin-2-yl)methyl)thio)piperidin-1-yl)methyl)piperidin-1-yl)-2-(2,6-dioxopiperidin-3-yl)isoindoline-1,3-dione], the DC50 in test [1] is less than 100 nM.

`O=C1CCC(N2C(=O)c3ccc(N4CCC(CN5CCC(SCc6nc7cc(OCC8CC8)cc(F)c7c(=O)[nH]6)CC5)CC4)cc3C2=O)C(=O)N1` (centres unmarked) [Example 40, 5-(4-((4-(((7-(cyclopropylmethoxy)-5-fluoro-4-oxo-3,4-dihydroquinazolin-2-yl)methyl)thio)piperidin-1-yl)methyl)piperidin-1-yl)-2-(2,6-dioxopiperidin-3-yl)isoindoline-1,3-dione] gave a DC50 in test [1] of less than 100 nM. The same measure, in the same setting: with `CC(=O)N1CCC(COc2cc(F)c3c(=O)[nH]c(CSC4CCN(CC5CN(c6cccc7c6CN(C6CCC(=O)NC6=O)C7=O)C5)CC4)nc3c2)CC1` (centres unmarked) [Example 41, 3-(4-(3-((4-(((7-((1-acetylpiperidin-4-yl)methoxy)-5-fluoro-4-oxo-3,4-dihydroquinazolin-2-yl)methyl)thio)piperidin-1-yl)methyl)azetidin-1-yl)-1-oxoisoindolin-2-yl)piperidine-2,6-dione] the figure was less than 100 nM.

In turn, `O=C1CCC(Nc2ccc(N3CCN(CCN4CCC(SCc5nc6cc(OCC7CC7)cc(F)c6c(=O)[nH]5)CC4)CC3)cc2)C(=O)N1` (centres unmarked) [Example 42, 3-((4-(4-(2-(4-(((7-(cyclopropylmethoxy)-5-fluoro-4-oxo-3,4-dihydroquinazolin-2-yl)methyl)thio)piperidin-1-yl)ethyl)piperazin-1-yl)phenyl)amino)piperidine-2,6-dione] registered a DC50 on PARP14 of less than 30 nM. For `O=C1CCC(Nc2ccc(N3CCN(CCN4CCC(SCc5nc6cc(OCC7CCOCC7)cc(F)c6c(=O)[nH]5)CC4)CC3)cc2)C(=O)N1` (centres unmarked) [Example 43, 3-((4-(4-(2-(4-(((5-fluoro-4-oxo-7-((tetrahydro-2H-pyran-4-yl)methoxy)-3,4-dihydroquinazolin-2-yl)methyl)thio)piperidin-1-yl)ethyl)piperazin-1-yl)phenyl)amino)piperidine-2,6-dione], on PARP14 (read-out: DC50), the DC50 is less than 30 nM. As for `O=C1CCC(Nc2ccc(N3CCN(CCN4CCC(OCc5nc6cc(OCC7CCOCC7)cc(F)c6c(=O)[nH]5)CC4)CC3)c(F)c2)C(=O)N1` (centres unmarked) [Example 44, 3-((3-fluoro-4-(4-(2-(4-((5-fluoro-4-oxo-7-((tetrahydro-2H-pyran-4-yl)methoxy)-3,4-dihydroquinazolin-2-yl)methoxy)piperidin-1-yl)ethyl)piperazin-1-yl)phenyl)amino)piperidine-2,6-dione], the DC50 at PARP14 (read-out: DC50) was less than 30 nM.

Consider `O=C1CCC(Nc2ccc(N3CCN(CCN4CCC(OCc5nc6cc(OCC7CC7)cc(F)c6c(=O)[nH]5)CC4)CC3)c(F)c2)C(=O)N1` (centres unmarked) [Example 45, 3-((4-(4-(2-(4-((7-(cyclopropylmethoxy)-5-fluoro-4-oxo-3,4-dihydroquinazolin-2-yl)methoxy)piperidin-1-yl)ethyl)piperazin-1-yl)-3-fluorophenyl)amino)piperidine-2,6-dione], for which, on PARP14 (read-out: DC50), the DC50 is less than 30 nM.

With `O=C1CCC(Nc2ccc(N3CCN(CCN4CCC(SCc5nc6cc(OCC7CCOCC7)cc(F)c6c(=O)[nH]5)CC4)CC3)c(F)c2)C(=O)N1` (centres unmarked) [Example 46, 3-((3-fluoro-4-(4-(2-(4-(((5-fluoro-4-oxo-7-((tetrahydro-2H-pyran-4-yl)methoxy)-3,4-dihydroquinazolin-2-yl)methyl)thio)piperidin-1-yl)ethyl)piperazin-1-yl)phenyl)amino)piperidine-2,6-dione], the DC50 at PARP14 (read-out: DC50) was less than 30 nM. The same measure, in the same setting: in the case of `O=C1CCC(Nc2ccc(N3CCN(CCN4CCC(SCc5nc6cc(OCC7CC7)cc(F)c6c(=O)[nH]5)CC4)CC3)c(F)c2)C(=O)N1` (centres unmarked) [Example 47, 3-((4-(4-(2-(4-(((7-(cyclopropylmethoxy)-5-fluoro-4-oxo-3,4-dihydroquinazolin-2-yl)methyl)thio)piperidin-1-yl)ethyl)piperazin-1-yl)-3-fluorophenyl)amino)piperidine-2,6-dione] it was less than 30 nM.

What is called DC50 is the concentration giving 50% degradation.
